This note sets out measurements from ChEMBL document CHEMBL1201862, “PubChem BioAssay data set” (2004).

Structures are written as SMILES.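 A five-concentration, 48-hour dose response in 96-well plates underlies each endpoint, interpolated linearly between surrounding concentrations. Here, GI50 denotes the concentration required for 50% inhibition of growth.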 The source made the active and inactive calls. No stated cut-off is given here; in the data, active = GI50 up to about 1.1 µM and inactive = higher. Some results are limits rather than exact numbers.

Test systems include 786-0; ACHN; DU-145; HCT-15; HL-60; HOP-92; HT-29; MDA-MB-435; Malme-3M; NCI-H460; NCI-H522; OVCAR-3; OVCAR-4; SK-MEL-2; SK-MEL-5; SN12C; SNB-75; SW-620; UACC-62; UO-31.
Holding throughout (experiment): NCI anticancer screen, dose series, 48 h

With `CC1=CC23C(COC(=O)C24CO4)C(C(=O)O)=CC3C1C` (stereo not given), the GI50 in the assay on 786-0 was 5.09 µM (inactive); in the assay with ACHN, 27.4 µM (inactive); in the assay on DU-145 it was 28.1 µM (inactive); in the assay on HCT-15, 24.5 µM; with HL-60 it was 15 µM (inactive); in the assay with HOP-92, 8.24 µM (inactive). Moreover, the GI50 in the assay with HT-29 is 16.2 µM (inactive); with MDA-MB-435 it was 23.1 µM (inactive); in the assay with Malme-3M, 6 µM (inactive); in the assay with NCI-H460, 18.2 µM (inactive); in the assay on NCI-H522 it was 1.37 µM (inactive); in the assay with OVCAR-3, 32.3 µM (inactive). For the same compound, the GI50 was 15.2 µM (inactive) with OVCAR-4; 3.08 µM (inactive) in the assay with SK-MEL-2; 25.2 µM (inactive) in the assay with SK-MEL-5; 3.32 µM (inactive) in the assay with SN12C; 17.7 µM (inactive) with SNB-75; 18.2 µM (inactive) in the assay on SW-620. The GI50 in the assay on UACC-62 was 12.8 µM (inactive); with UO-31, 27.3 µM (inactive).
`COc1cccc(N2C(=O)CS(=O)(=O)C2c2cccc(Oc3ccccc3)c2)c1` (stereo not given): the GI50 in the assay with 786-0 is 16.9 µM (inactive); in the assay on ACHN, 20.1 µM (inactive); in the assay with DU-145, 38.5 µM (inactive); with HCT-15, 5.27 µM; in the assay with HL-60, 11 µM (inactive); in the assay on HOP-92, 12.7 µM (inactive). In addition, the GI50 in the assay with HT-29 is 13.1 µM (inactive); with MDA-MB-435, 3.56 µM (inactive); with Malme-3M, 15.9 µM (inactive); in the assay with NCI-H460 it was 13.6 µM (inactive); in the assay on NCI-H522 it was 6.53 µM (inactive); in the assay with OVCAR-3 it was 19.5 µM (inactive). For the same compound, the GI50 in the assay with OVCAR-4 was 28.6 µM (inactive); in the assay with SK-MEL-2 it was 14.2 µM (inactive); in the assay with SK-MEL-5, 7.11 µM (inactive); in the assay on SN12C it was 17.6 µM (inactive); in the assay on SNB-75, 15.6 µM (inactive); with SW-620 it was 15.6 µM (inactive). For the same compound, the GI50 was 6.1 µM (inactive) in the assay with UACC-62 and 34.4 µM (inactive) in the assay on UO-31.
Take `O=[N+]([O-])c1ccc(/C(=N/c2ccccc2)SS/C(=N\c2ccccc2)c2ccc([N+](=O)[O-])o2)o1`: the GI50 in the assay with 786-0 was 1.4 µM (inactive); in the assay with ACHN it was 1.91 µM (inactive); in the assay on DU-145, 1.69 µM (inactive); in the assay on HCT-15, 0.552 µM; with HL-60, 2.09 µM (inactive); in the assay on HOP-92 it was 2.93 µM (inactive). The GI50 in the assay with HT-29 was 1.35 µM (inactive); with MDA-MB-435, 2.1 µM (inactive); in the assay with Malme-3M it was 2.31 µM (inactive); in the assay on NCI-H460, 1.33 µM (inactive); in the assay on NCI-H522, 0.243 µM (active); in the assay with OVCAR-3 it was 1.53 µM (inactive). The GI50 with OVCAR-4 is 1.47 µM (inactive); with SK-MEL-2 it was 2.51 µM (inactive); in the assay on SK-MEL-5, 5.78 µM (inactive); in the assay with SN12C it was 1.94 µM (inactive); in the assay on SNB-75 it was 1.66 µM (inactive); in the assay with SW-620, 0.425 µM (active). Also, the GI50 was 1.61 µM (inactive) in the assay on UACC-62 and 1.47 µM (inactive) in the assay on UO-31.
Turning to `CCOC(=O)C1C(c2ccc(O)c(OC)c2)c2c(n[nH]c2O)CC1(C)O` (stereo not given), the GI50 is > 100 µM (inactive) with 786-0; > 100 µM (inactive) in the assay on ACHN; > 100 µM (inactive) with DU-145; over 100 µM with HCT-15; > 100 µM (inactive) with HL-60; > 100 µM (inactive) in the assay with HOP-92. For the same compound, the GI50 is > 100 µM (inactive) with HT-29; > 100 µM (inactive) in the assay with MDA-MB-435; > 100 µM (inactive) with Malme-3M; > 10 µM (inactive) in the assay on NCI-H460; > 100 µM (inactive) in the assay on NCI-H522; > 100 µM (inactive) with OVCAR-3. Further, the GI50 in the assay on OVCAR-4, with SK-MEL-2, in the assay with SK-MEL-5, in the assay with SN12C, in the assay on SNB-75 and in the assay on SW-620 was > 100 µM (inactive) in each case. Also, the GI50 with UACC-62 and in the assay with UO-31 was > 100 µM (inactive) throughout.
As to `Cc1cc(C)c(S(=O)(=O)N2CCCN(S(=O)(=O)c3c(C)cc(C)cc3C)OCCCO2)c(C)c1`, the GI50 in the assay on 786-0 was > 100 µM (inactive); with ACHN, > 100 µM (inactive); with DU-145 it was > 100 µM (inactive); with HCT-15 it was over 100 µM; in the assay with HL-60, > 100 µM (inactive); in the assay on HOP-92 it was 47.1 µM (inactive). The GI50 with HT-29, in the assay with MDA-MB-435, in the assay with Malme-3M, in the assay on NCI-H460, in the assay on NCI-H522 and with OVCAR-3 was > 100 µM (inactive) each time. Moreover, the GI50 in the assay with OVCAR-4 is 79.4 µM (inactive); in the assay with SK-MEL-2, > 100 µM (inactive); in the assay on SK-MEL-5, > 100 µM (inactive); in the assay on SN12C it was > 100 µM (inactive); in the assay with SNB-75, 57.1 µM (inactive); in the assay with SW-620, > 100 µM (inactive). Further, the GI50 in the assay with UACC-62 and in the assay with UO-31 was > 100 µM (inactive) in each case.
For the compound `Cc1cn(Cc2ccccc2CCl)c(=O)[nH]c1=O`, the GI50 with 786-0 was 14.2 µM (inactive); in the assay with ACHN it was 12.6 µM (inactive); in the assay on DU-145, 13.1 µM (inactive); in the assay on HCT-15, 14.8 µM; in the assay with HL-60 it was 3.08 µM (inactive); in the assay with HOP-92, 25.4 µM (inactive). Further, the GI50 in the assay with HT-29 was 15.4 µM (inactive); with MDA-MB-435, 11.5 µM (inactive); in the assay with Malme-3M, 21.3 µM (inactive); with NCI-H460, 21.1 µM (inactive); in the assay on NCI-H522 it was 6.34 µM (inactive); in the assay with OVCAR-3 it was 4.24 µM (inactive). Besides, the GI50 with OVCAR-4 was 34.3 µM (inactive); with SK-MEL-2, 14.3 µM (inactive); with SK-MEL-5, 7.4 µM (inactive); with SN12C it was 12.6 µM (inactive); in the assay on SNB-75 it was 14.6 µM (inactive); in the assay with SW-620, 8.15 µM (inactive). The GI50 in the assay with UACC-62 is 4.68 µM (inactive); in the assay on UO-31, 11.6 µM (inactive).
For `O=C1/C(=C(/Br)I)c2ccccc2-c2ccccc21`, the GI50 was 3.34 µM (inactive) in the assay with 786-0; 7.26 µM (inactive) in the assay on ACHN; 16.3 µM (inactive) in the assay with DU-145; 4.34 µM in the assay with HCT-15; 0.248 µM (active) in the assay with HL-60; 2.79 µM (inactive) in the assay with HOP-92. For the same compound, the GI50 in the assay on HT-29 is 6.55 µM (inactive); in the assay with MDA-MB-435, 8.51 µM (inactive); in the assay with Malme-3M, 3.56 µM (inactive); with NCI-H460 it was 17.8 µM (inactive); with NCI-H522, 2.09 µM (inactive); in the assay on OVCAR-3, 9.98 µM (inactive). The GI50 is 14.7 µM (inactive) in the assay with OVCAR-4; 8.73 µM (inactive) with SK-MEL-2; 16 µM (inactive) in the assay with SK-MEL-5; 16.2 µM (inactive) with SN12C; 15.5 µM (inactive) in the assay with SNB-75; 2.52 µM (inactive) in the assay with SW-620. For the same compound, the GI50 in the assay with UACC-62 is 7.19 µM (inactive); with UO-31, 2.4 µM (inactive).
`Cc1ccc(S(=O)(=O)N/N=C/C(Br)=C(/Br)C(=O)O)cc1`: the GI50 was 3.42 µM (inactive) in the assay with 786-0; 2.71 µM (inactive) with ACHN; 12.2 µM (inactive) in the assay on DU-145; 2.19 µM in the assay on HCT-15; 1.93 µM (inactive) in the assay with HL-60; 11.3 µM (inactive) in the assay on HOP-92. Moreover, the GI50 in the assay with HT-29 was 5.16 µM (inactive); in the assay with MDA-MB-435, 4.43 µM (inactive); with Malme-3M, 4.39 µM (inactive); in the assay with NCI-H460, 17.5 µM (inactive); with NCI-H522 it was 1.99 µM (inactive); in the assay on OVCAR-3, 6.97 µM (inactive). The GI50 in the assay on OVCAR-4 was 6.22 µM (inactive); in the assay on SK-MEL-2 it was 14.6 µM (inactive); with SK-MEL-5, 11.7 µM (inactive); in the assay with SN12C it was 9.93 µM (inactive); in the assay with SNB-75 it was 22.1 µM (inactive); in the assay with SW-620, 2.2 µM (inactive). The GI50 with UACC-62 was 8.17 µM (inactive); with UO-31, 4.66 µM (inactive).
Consider `CCOC(=O)C1=C(C)NC(=O)NC1c1coc2cc(C)cc(C)c2c1=O` (stereo not given), for which the GI50 in the assay with 786-0 was 67.9 µM (inactive); in the assay on ACHN it was > 81.3 µM (inactive); with DU-145 it was > 100 µM (inactive); in the assay with HCT-15, 25 µM; in the assay on HL-60, > 54.5 µM (inactive); in the assay on HOP-92, > 74.3 µM (inactive). The GI50 in the assay on HT-29 is 32.1 µM (inactive); with MDA-MB-435, 4.5 µM (inactive); in the assay with Malme-3M, 13 µM (inactive); with NCI-H460 it was 25.9 µM (inactive); in the assay on NCI-H522, 1.68 µM (inactive); with OVCAR-3, 24.5 µM (inactive). Moreover, the GI50 is 55.3 µM (inactive) in the assay on OVCAR-4; > 43.8 µM (inactive) in the assay with SK-MEL-2; > 51.2 µM (inactive) in the assay with SK-MEL-5; 58.2 µM (inactive) in the assay with SN12C; 3.27 µM (inactive) in the assay on SNB-75; 32.1 µM (inactive) with SW-620. Also, the GI50 with UACC-62 was 61.5 µM (inactive); with UO-31 it was 44 µM (inactive).
As to `Nc1ncnc2c1ncn2C1OC(CO)C(O)C1NS(=O)(=O)c1ccccc1` (stereo not given), the GI50 in the assay on 786-0 is > 100 µM (inactive); in the assay with ACHN it was > 100 µM (inactive); with DU-145 it was > 100 µM (inactive); in the assay with HCT-15, over 100 µM; with HL-60 it was > 100 µM (inactive); in the assay with HOP-92, > 100 µM (inactive). Moreover, the GI50 in the assay with HT-29, with MDA-MB-435, in the assay with Malme-3M, in the assay on NCI-H460, in the assay on NCI-H522 and in the assay with OVCAR-3 was > 100 µM (inactive) each time. Further, the GI50 in the assay with OVCAR-4, with SK-MEL-2, with SK-MEL-5, in the assay on SN12C, with SNB-75 and in the assay on SW-620 was > 100 µM (inactive) in each case. The GI50 in the assay on UACC-62 and in the assay on UO-31 was > 100 µM (inactive) in each case.
